Drawing on patent US20130344026A1, “Dimeric Smac Mimetics” (priority 2009, published 2013), this text covers IC50 for 25 compounds.

Read-outs that look alike come from different tables or passages of the source.

The test concerns PANC-1 cells. Nature of the test: cell viability assay in PANC-1 cells (compound alone, + 100 ng/ml TNFa, + 300 ng/ml TRAIL). The test is classed as cell-based.
The mark [1] stands for this setting: Homo sapiens, PANC-1, compound alone, Tables 6-10, read-out: IC50 (μM) in cell viability assay in PANC-1 cells: Compound alone.
Where [2] appears, read: with 100 ng/ml TNFa, Tables 6-10, read-out: IC50 (μM) in cell viability assay in PANC-1 cells: Compound + 100 ng/ml TNFa.
[3] abbreviates: with 300 ng/ml TRAIL, Tables 6-10, read-out: IC50 (μM) in cell viability assay in PANC-1 cells: Compound + 300 ng/ml TRAIL.
Where [4] appears, read: Homo sapiens, PANC-1, compound alone, Tables 15-18, read-out: IC50 (uM) in cell viability assay in PANC-1 cells: Cmpnd alone.
The mark [5] stands for this setting: with 100 ng/ml TNFa, Tables 15-18, read-out: IC50 (uM) in cell viability assay in PANC-1 cells: Cmpnd + 100 ng/ml TNFa.
[6] abbreviates: with 300 ng/ml TRAIL, Tables 15-18, read-out: IC50 (uM) in cell viability assay in PANC-1 cells: Cmpnd + 300 ng/ml TRAIL.

Regarding `CN[C@@H](C)C(=O)NC(C(=O)N1C[C@@H](NC(=O)c2cccc(C(=O)N[C@H]3CC(C(=O)N[C@H](CO)[C@H](O)c4ccccc4)N(C(=O)[C@@H](NC(=O)[C@H](C)NC)C(C)(C)C)C3)c2)CC1C(=O)N[C@H](CO)[C@@H](O)c1ccccc1)C(C)(C)C` (some centres unmarked) [Compound 42], the IC50 under setting [1] is more than 1 µM, the IC50 under setting [2] worked out at 0.753 µM and the IC50 under setting [3] was found to be 0.645 µM.
For `CN[C@@H](C)C(=O)N[C@H](C(=O)N1CCC[C@H]1C(=O)N[C@H]1c2ccccc2C[C@@H]1OCC#CC#CCO[C@H]1Cc2ccccc2[C@@H]1NC(=O)[C@@H]1CCCN1C(=O)[C@@H](NC(=O)[C@H](C)NC)C(C)(C)C)C(C)(C)C` [Compound 121], the IC50 was more than 1 µM under setting [1], 0.0013 µM under setting [2] and 0.0015 µM under setting [3].
For `CN[C@@H](C)C(=O)N[C@H](C(=O)N1CCC[C@H]1c1cc(C(=O)OC)c(-c2cn(CCCCCCn3cc(-c4oc([C@@H]5CCCN5C(=O)[C@@H](NC(=O)[C@H](C)NC)C(C)(C)C)cc4C(=O)OC)c4ccccc43)c3ccccc23)o1)C(C)(C)C` [Compound P4-27], the IC50 by setting is: under setting [4], more than 1 µM; under setting [5], 0.0243 µM; under setting [6], 0.0294 µM.
In the case of `CN[C@@H](C)C(=O)N[C@H](C(=O)N[C@@H](CCNC(=O)c1cccc(C(=O)N[C@H]2C[C@@H](C(=O)N[C@@H]3CCCc4ccccc43)N(C(=O)[C@@H](NC(=O)[C@H](C)NC)C(C)(C)C)C2)c1)C(=O)N[C@H](C)c1ccccc1)C(C)C` [Compound 175], the IC50 is more than 1 µM under setting [1], 0.0163 µM under setting [2] and 0.0357 µM under setting [3].
For `CN[C@@H](C)C(=O)N[C@H](C(=O)N[C@@H](CCNC(=O)c1cc(N)cc(C(=O)N[C@H]2C[C@@H](C(=O)N[C@@H]3CCCc4ccccc43)N(C(=O)[C@@H](NC(=O)[C@H](C)NC)C(C)(C)C)C2)c1)C(=O)N[C@@H]1CCCc2ccccc21)C(C)C` [Compound 183], in that order: more than 1 µM, 0.044 µM and 0.061 µM.
For `CN[C@@H](C)C(=O)N[C@H](C(=O)N1CCC[C@H]1c1cc(C(=O)OC)c(-c2cn(CC#CC#CCn3cc(-c4oc([C@@H]5CCCN5C(=O)[C@@H](NC(=O)[C@H](C)NC)C(C)(C)C)cc4C(=O)OC)c4ccccc43)c3ccccc23)o1)C(C)(C)C` [Compound P4-25], the IC50 is more than 1 µM under setting [4], 0.0342 µM under setting [5] and 0.0408 µM under setting [6].
Regarding `CN[C@@H](C)C(=O)N[C@H](C(=O)N1CCC[C@H]1C(=O)N[C@H]1c2ccccc2C[C@@H]1OC(=O)CCCC(=O)O[C@H]1Cc2ccccc2[C@@H]1NC(=O)[C@@H]1CCCN1C(=O)[C@@H](NC(=O)[C@H](C)NC)C(C)(C)C)C(C)(C)C` [Compound 118], the IC50 runs as follows: under setting [1], more than 1 µM; under setting [2], 0.0007 µM; under setting [3], 0.0008 µM.
`CN[C@@H](C)C(=O)N[C@H](C(=O)N1CCC[C@H]1CN(CCc1ccccc1)C(=O)CCC#CC#CCCC(=O)N(CCc1ccccc1)C[C@@H]1CCCN1C(=O)[C@@H](NC(=O)[C@H](C)NC)C(C)(C)C)C(C)(C)C` [Compound P4-21]: the IC50 is more than 1 µM under setting [4], 0.151 µM under setting [5] and 0.175 µM under setting [6].
For the compound `CN[C@@H](C)C(=O)N[C@H](C(=O)N1C[C@@H](NC(=O)CC[C@@H](NC(=O)[C@H](NC(=O)[C@@H](C)NC)C(C)(C)C)C(=O)N[C@H]2CCCc3ccccc32)C[C@H]1C(=O)N[C@H](C)c1ccccc1)C(C)C` [Compound 167], the IC50 was more than 1 µM under setting [1], 0.06 µM under setting [2] and 0.1 µM under setting [3].
Turning to `CN[C@@H](C)C(=O)Nc1nc(CC(=O)NCCCC[C@H](NC(=O)[C@H](C)NC)C(=O)N2CCC[C@H]2C(=O)N[C@@H]2CCCc3ccccc32)cs1` [Compound 189], the IC50 is more than 1 µM under setting [1], more than 1 µM under setting [2] and more than 1 µM under setting [3].
With `CN[C@@H](C)C(=O)N[C@H](C(=O)N1C[C@@H](NC(=O)c2cccc(C(=O)N[C@H]3C[C@@H](C(=O)NC4CCOc5ccccc54)N(C(=O)[C@@H](NC(=O)[C@H](C)NC)C(C)(C)C)C3)c2)C[C@H]1C(=O)NC1CCOc2ccccc21)C(C)(C)C` (single isomer, unassigned) [Compound 66], the IC50 by setting is: (compound alone, Tables 6-10, read-out: IC50 (μM) in cell viability assay in PANC-1 cells: Compound alone) more than 1 µM; under setting [2], 0.012 µM; under setting [3], 0.013 µM.
Regarding `CN[C@@H](C)C(=O)N[C@H](C(=O)N1CCC[C@H]1Cn1nnnc1Sc1ccccc1)[C@@H](C)OCC#Cc1cccc(C#CCO[C@@H](C)[C@@H](NC(=O)[C@@H](C)NC)C(=O)N2CCC[C@@H]2Cn2nnnc2Sc2ccccc2)c1` [Compound 116], the IC50 runs as follows: under setting [1], more than 1 µM; under setting [2], 0.0046 µM; under setting [3], 0.0059 µM.
Take `CN[C@@H](C)C(=O)N[C@H](C(=O)N1C[C@@H](NC(=O)c2cccc(C(=O)N[C@H]3C[C@@H](C(=O)NC4CCOc5ccccc54)N(C(=O)[C@@H](NC(=O)[C@H](C)NC)C(C)(C)C)C3)c2)C[C@H]1C(=O)NC1CCOc2ccccc21)C(C)(C)C` (single isomer, unassigned) [Compound 65]: the IC50 is more than 1 µM under setting [1], 0.265 µM under setting [2] and 0.328 µM under setting [3].
For `CN[C@@H](C)C(=O)Nc1nc(CC(=O)NC[C@@H](NC(=O)[C@@H]2CCCN2C(=O)[C@@H](NC(=O)[C@H](C)NC)C(C)(C)C)c2ccccc2)cs1` [Compound 193], in that order: more than 1 µM, more than 1 µM and more than 1 µM.
With `CN[C@@H](C)C(=O)N[C@H](C(=O)N1CCCC1C(=O)N[C@H](COCC#CC#CCOC[C@@H](NC(=O)[C@H](C)NC(=O)[C@H](NC(=O)[C@@H](C)NC)C1CCCCC1)C(C)C)C1CCCCC1)C(C)(C)C` (some centres unmarked) [Compound 209], the IC50 worked out at 0.0007 µM under setting [2] and 0.0007 µM under setting [3].
Turning to `CN[C@@H](C)C(=O)N[C@H](C(=O)N1C[C@@H](NC(=O)CC[C@@H](NC(=O)[C@H](NC(=O)[C@@H](C)NC)C(C)C)C(=O)N[C@@H](C)C(C)C)C[C@H]1C(=O)N[C@H](C)c1ccccc1)C(C)C` [Compound 168], the IC50 under setting [1] is more than 1 µM, the IC50 under setting [2] is more than 1 µM and the IC50 under setting [3] is more than 1 µM.
As for `CN[C@@H](C)C(=O)N[C@@H](CCCCCC[C@H](NC(=O)[C@H](C)NC)C(=O)N1CCC[C@H]1CNC(=O)c1ccccc1)C(=O)N1CCC[C@H]1CNC(=O)c1ccccc1` [Compound 16], the IC50 is more than 1 µM under setting [1], more than 1 µM under setting [2] and more than 1 µM under setting [3].
Consider `CN[C@@H](C)C(=O)N[C@H](C(=O)N[C@@H](CCNC(=O)CC[C@H](NC(=O)[C@@H](NC(=O)[C@H](C)NC)C(C)(C)C)C(=O)N[C@@H]1CCCc2ccccc21)C(=O)N[C@@H]1CCCc2ccccc21)C(C)(C)C` [Compound 171], for which the IC50 runs as follows: under setting [1], more than 1 µM; under setting [2], 0.044 µM; under setting [3], 0.063 µM.
For `CN[C@@H](C)C(=O)N[C@H](C(=O)N[C@@H](CCNC(=O)c1cc(N)cc(C(=O)N[C@H]2C[C@@H](C(=O)N[C@@H]3CCCc4ccccc43)N(C(=O)[C@@H](NC(=O)[C@H](C)NC)C(C)(C)C)C2)c1)C(=O)N[C@H](C)C(C)C)C(C)C` [Compound 180], in that order: more than 1 µM, 0.124 µM and 0.201 µM.
The like results for `CCC1(NC(=O)[C@@H]2C[C@H](NC(=O)c3cc(C(=O)N[C@H]4C[C@@H](C(=O)NC5(CC)CCCc6ccccc65)N(C(=O)[C@@H](NC(=O)[C@H](C)NC)C(C)(C)C)C4)[nH]n3)CN2C(=O)[C@@H](NC(=O)[C@H](C)NC)C(C)(C)C)CCCc2ccccc21` (some centres unmarked) [Compound 52] were, in that order, more than 1 µM, 0.046 µM and 0.052 µM.
Consider `CN[C@@H](C)C(=O)N[C@H](C(=O)N1C[C@@H](NC(=O)c2cccc(C(=O)N[C@H]3C[C@@H](C(=O)NCCc4ccc(N)cc4)N(C(=O)[C@@H](NC(=O)[C@H](C)NC)C(C)(C)C)C3)c2)C[C@H]1C(=O)NCCc1ccc(N)cc1)C(C)(C)C` [Compound 4], for which the IC50 runs as follows: under setting [1], more than 1 µM; under setting [2], more than 1 µM; under setting [3], 0.739 µM.
Take `CN[C@@H](C)C(=O)N[C@@H](CC(=O)NCC#CC#CCNC(=O)C[C@H](NC(=O)[C@H](C)NC)C(=O)N1CCC[C@H]1C(=O)N[C@@H]1CCCc2ccccc21)C(=O)N1CCC[C@H]1C(=O)N[C@@H]1CCCc2ccccc21` [Compound P2-41]: the IC50 is more than 1 µM under setting [4], 0.094 µM under setting [5] and 0.092 µM under setting [6].
As for `CN[C@@H](C)C(=O)N[C@@H](CC#CC#CC[C@H](NC(=O)[C@H](C)NC)C(=O)N1CCC[C@H]1CNC(=O)c1ccccc1)C(=O)N1CCC[C@H]1CNC(=O)c1ccccc1` [Compound 14], the IC50 under setting [1] is more than 1 µM, the IC50 under setting [2] is more than 1 µM and the IC50 under setting [3] is more than 1 µM.
For the compound `CN[C@@H](C)C(=O)N[C@@H](CCCCCC[C@H](NC(=O)[C@H](C)NC)C(=O)N1c2ccccc2C[C@H]1C(=O)N[C@@H]1CCCc2ccccc21)C(=O)N1c2ccccc2C[C@H]1C(=O)N[C@@H]1CCCc2ccccc21` [Compound 93], the IC50 was more than 1 µM under setting [1], 0.299 µM under setting [2] and 0.327 µM under setting [3].
For the compound `CN[C@@H](C)C(=O)N[C@H](C(=O)N1CCCC1C(=O)N[C@H](COCC#CC#CCOC[C@@H](NC(=O)[C@H](C)NC(=O)[C@H](NC(=O)[C@@H](C)NC)C1CCCCC1)C(C)C)C1CCCCC1)C(C)(C)C` (some centres unmarked) [Compound H-7], the IC50 was more than 1 µM under setting [4], 0.0007 µM under setting [5] and 0.0007 µM under setting [6].
